Results reported in patent publication US20030224349A1, “Rapid assay to assess the potential for glucocorticoid analogs to promote the differentiation of human osteoblasts and predict bone safety” (Pfizer Inc., priority 2002, published 2003).
Where two headings read alike, the source gives them in different places.

How the values were obtained:
Format in all cases: cell-based
[1] = test system: MMP13; test: inhibition of IL-1β-induced MMP13 release in SW1353 chondrocyte cells (ELISA); details: Homo sapiens, read-out: IC50, concentration reducing the release of MMP13 50%
[2] = test system: IL-8; test: inhibition of IL-1β-induced IL-8 release in SW1353 chondrocyte cells (ELISA); details: Homo sapiens, SW1353, 24 h, read-out: IC50, concentration reducing the release of IL-8 50%
Procedure: Glucocorticoids have anti-inflammatory efficacy in a variety of cell models. Clinically, glucocorticoids set the benchmark for anti-inflammatory therapeutics.
For efficacy testing, 10,000 SW1353 cells (ATCC# HTB-94) were plated in 96 well plates in DMEM with 10% Fetal Bovine Serum (FBS). The next day media was changed to DMEM without serum.
After 24 hours the amount of MMP13 and IL-8 released into the media was quantified using commercial ELISA assays (Amersham and R&D Systems, respectively).
The concentration of compound reducing the release of MMP13 or IL-8 50% (IC50) was determined from the plot of the drug dose vs. percent inhibition relative to the vehicle control.

[3] = test system: primary human osteoblasts; test: alkaline phosphatase assay in primary human osteoblasts; details: 13 days of treatment
Procedure: For alkaline phosphatase testing, primary human osteoblasts (Biowhittaker CC-2538) were plated at a density of 4,400 cells per well in 24-well plates containing OGM medium (Biowhittaker CC-3207) with 10% Fetal Bovine Serum (FBS). The next day media was changed to OGM medium supplemented with 0.1 mM ascorbic acid and 10 mM □-glycerophosphate (differentiation supplements, Biowhittaker CC-4194), and treated with reference and test compounds in a range of doses from 100 nM to 10 uM). Fresh media was added 2× per week.
After 13 days the cells were harvested and extract prepared for analysis.
Differentiation supplement medium was changed every three to four days with fresh test compound addition each time. After seven to thirteen days, the amount of alkaline phosphatase produced by the cultures was quantified using commercial alkaline phosphatase reagent (ALP Reagent) and standard (Sigma M2266 and 245-10, respectively).
Cells were rinsed with 0.9% NaCl, and lysed in alkaline phosphatase assay buffer (150 mM Tris-HCl pH 8, 0.1 mM MgCl2, 0.1 mM ZnCl2, 1% Triton X-100). Prewarmed ALP Reagent was added to lysate or to serial dilutions of the alkaline phosphatase standard and incubated at 37° C. for 30 minutes.
The calorimetric endpoint of absorbance at 405 nm was read on a SpectraMax 340 microplate reader (Molecular Devices), and after extrapolation from standard curve, values were reported in units of enzyme activity per volume.

[4] = test system: primary human osteoblasts; test: nodule assay (Von Kossa staining) in primary human osteoblasts; details: 28 days of treatment
Procedure: Primary human osteoblasts were cultured as for the alkaline phosphatase assay. After 28 days of test compound treatment, the cultures were fixed with 70% ethanol for 10 minutes, stained with 5% silver nitrate solution and exposed to bright light (Polaroid imaging system with 4×150 watt lamps) for 20 to 30 minutes. Wells were rinsed with water, air dried and nodules documented by micrographs at 300× magnification.

| Compound | IC50 ([1]; SW1353, 24 h) | IC50 [2] | IC50 ([1]; SW1353 cells, 10 ng/ml IL-1β, 24 hours) | induction of alkaline phosphatase production/activity (in words) [3] | alkaline phosphatase expression, % of dexamethasone maximum ([3]; at 1 uM) | induction of alkaline phosphatase production/activity (in words) ([3]; listed as Hydrocortisone) | nodule formation / mineral deposition (Von Kossa staining, in words) [4] |
| --- | --- | --- | --- | --- | --- | --- | --- |
| C[C@@H]1C[C@H]2[C@@H]3CCC4=CC(=O)C=C[C@]4(C)[C@@]3(F)[C@@H](O)C[C@]2(C)[C@@]1(O)C(=O)CO [dexamethasone] | ~1 nM | ~1 nM |  |  |  |  |  |
| C[C@]12CCC(=O)C=C1CC[C@@H]1[C@@H]2[C@@H](O)C[C@@]2(C)[C@H]1CC[C@]2(O)C(=O)CO [hydrocortisone] |  |  | 60 nM | stimulated | about 64% | dose dependent increase | dose-dependant nodule formation |
